This is an account of results in publication PMC7356367, “Design, Synthesis, and Biological Evaluation of 8-Mercapto-3,7-Dihydro-1H-Purine-2,6-Diones as Potent Inhibitors of SIRT1, SIRT2, SIRT3, and SIRT5” (Molecules, 2020).

By IC50 is commonly meant the midpoint of a concentration-inhibition curve. A word on the melting point: it is the temperature, or range, at which the solid turns liquid.

Data set [1] can be described thus: Stability of DMSO solution by mass spectrometry. As to conditions: nine months, refrigerator 4 °C.
The target in data set [2] is T1, SIRT2 (Homo sapiens, UniProt Q8IXJ6).
T1 sequence (Q8IXJ6 1-389): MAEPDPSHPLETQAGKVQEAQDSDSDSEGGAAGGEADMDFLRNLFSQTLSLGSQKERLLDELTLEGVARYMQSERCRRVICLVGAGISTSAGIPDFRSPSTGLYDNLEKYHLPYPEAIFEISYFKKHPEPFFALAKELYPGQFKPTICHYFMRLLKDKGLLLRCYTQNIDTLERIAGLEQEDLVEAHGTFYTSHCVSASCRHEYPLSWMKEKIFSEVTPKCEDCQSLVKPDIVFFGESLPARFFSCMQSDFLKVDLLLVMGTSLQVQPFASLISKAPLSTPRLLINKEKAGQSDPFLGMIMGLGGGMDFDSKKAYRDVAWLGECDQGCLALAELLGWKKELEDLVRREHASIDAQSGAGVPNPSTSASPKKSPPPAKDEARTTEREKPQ
The data set is described as follows: Fluorescent deacetylation assay, SIRT2.

The target of a further data set is T2, SIRT5 (Homo sapiens, UniProt Q9NXA8).
T2 sequence (Q9NXA8 37-310): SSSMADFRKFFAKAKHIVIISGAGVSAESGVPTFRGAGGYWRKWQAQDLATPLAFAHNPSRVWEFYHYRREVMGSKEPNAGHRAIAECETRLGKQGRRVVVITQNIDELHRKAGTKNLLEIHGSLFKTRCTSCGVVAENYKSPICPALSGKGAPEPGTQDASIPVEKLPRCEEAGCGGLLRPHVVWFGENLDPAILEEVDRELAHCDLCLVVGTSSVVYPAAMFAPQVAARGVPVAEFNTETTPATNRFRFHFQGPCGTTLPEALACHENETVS
The data set is described as follows: Fluorescent deacylation assay (succinyl-peptide), SIRT5.

For another data set, the target named is SIRT6 (Homo sapiens, UniProt Q8N6T7). The data set is described as follows: Fluorescent deacetylation assay, SIRT6.
Data set [3] is described as follows: Stability in the assay buffer and activity assay by HPLC. As to conditions: overall statement.
The next data set relates to SH-SY5Y cells. The data set is described as follows: MTT assay for toxicity. The class given is cell-based. As to conditions: 24 hours. The method, then: To evaluate the toxicity of the compounds, we carried out MTT assays on SH-SY5Y
cells incubated with various concentrations of compounds 4 and 15 for 24 hours. We […]
(In general: Formazan colour is commonly taken as a measure of viable cells.)

The next data set deals with T3, SIRT3 (Homo sapiens, UniProt Q9NTG7).
T3 sequence (Q9NTG7 118-399): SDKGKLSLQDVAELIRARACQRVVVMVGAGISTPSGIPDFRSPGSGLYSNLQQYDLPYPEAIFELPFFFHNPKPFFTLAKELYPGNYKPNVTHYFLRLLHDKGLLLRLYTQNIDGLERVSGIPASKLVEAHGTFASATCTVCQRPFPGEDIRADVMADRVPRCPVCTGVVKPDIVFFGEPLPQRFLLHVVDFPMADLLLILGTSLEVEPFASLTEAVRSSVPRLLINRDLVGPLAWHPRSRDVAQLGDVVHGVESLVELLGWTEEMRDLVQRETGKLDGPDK
The data set is described as follows: Fluorescent deacetylation assay with internally quenched acetyl peptide and trypsin development, SIRT3.

In data set [4] the target is T4, SIRT1 (Homo sapiens, UniProt Q96EB6).
T4 construct: Human SIRT1 (183-505-(GGGS)2-641-665); His6 with sumo-cleavage site (N); made in house; host or cells: E. coli BL21
T4 sequence (Q96EB6 with tags, fused parts or gaps): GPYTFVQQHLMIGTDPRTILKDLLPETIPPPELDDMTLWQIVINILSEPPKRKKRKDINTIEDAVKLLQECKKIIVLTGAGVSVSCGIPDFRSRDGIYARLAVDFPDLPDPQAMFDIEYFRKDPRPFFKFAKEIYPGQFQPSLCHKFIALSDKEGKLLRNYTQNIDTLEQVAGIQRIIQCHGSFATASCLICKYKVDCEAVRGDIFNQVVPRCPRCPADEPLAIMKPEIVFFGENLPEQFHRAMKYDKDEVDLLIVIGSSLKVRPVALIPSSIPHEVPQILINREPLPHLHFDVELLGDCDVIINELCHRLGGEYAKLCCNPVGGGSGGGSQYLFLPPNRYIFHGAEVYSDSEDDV
The data set is described as follows: Fluorescent deacetylation assay, SIRT1. As to conditions: 0.8 μM SIRT1, 10 μM acetyl-peptide, 1.2 mM NAD+. The format is biochemical. The procedure:
All compounds were dissolved in 10 mM stock solution in DMSO. […] The fluorescence was measured using a microplate reader (SpectraMax M5, Molecular Devices, San Jose, CA, USA) with excitation at 320 nm and emission at 420 nm. All reactions were done in triplicate.
IC50 were determined for other sirtuins using the same assay as for SIRT3.

The test system of data set [5] is SIRT2. As to conditions: Figure 1, reported sirtuin inhibitors; cited from earlier work.
Data set [6] deals with SIRT1. As to conditions: Figure 1, reported sirtuin inhibitors; cited from earlier work.

SIRT6, sequence (Q8N6T7 whole entry): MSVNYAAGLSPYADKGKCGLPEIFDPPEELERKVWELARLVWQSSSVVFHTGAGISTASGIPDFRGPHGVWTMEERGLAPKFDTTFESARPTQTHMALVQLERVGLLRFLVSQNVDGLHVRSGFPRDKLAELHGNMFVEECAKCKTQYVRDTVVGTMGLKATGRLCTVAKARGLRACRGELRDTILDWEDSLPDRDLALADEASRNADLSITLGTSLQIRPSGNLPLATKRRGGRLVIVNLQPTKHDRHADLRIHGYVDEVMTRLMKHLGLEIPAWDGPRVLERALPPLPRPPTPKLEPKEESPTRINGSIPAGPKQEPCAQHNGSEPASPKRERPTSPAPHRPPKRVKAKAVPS

In the case of `CCn1c(=O)c2[nH]c(SSc3nc4c([nH]3)c(=O)n(CC)c(=O)n4CC)nc2n(CC)c1=O` [Compound 1, 8,8′-Disulfanediylbis(1,3-diethyl-3,7-dihydro-1H-purine-2,6-dione)], in data set [1], the “Stability in DMSO” value is “remains stable”. The IC50 on SIRT2 [2] is 1.17 ± 0.04 µM; against SIRT5 it was 0.42 ± 0.01 µM; at SIRT6 it was 116 ± 6.2 µM. The “Stability in the activity assays” value in data set [3] is “stable in the activity assays”.
`CCCn1c(=O)c2[nH]c(SSc3nc4c([nH]3)c(=O)n(CCC)c(=O)n4CCC)nc2n(CCC)c1=O` [Compound 4, 8,8’-Disulfanediylbis(1,3-dipropyl-3,7-dihydro-1H-purine-2,6-dione)] returned a melting point of 241 to 243 °C. Moreover, the IC50 against SIRT2 [2] was 1.19 ± 0.06 µM. Besides, half-maximal inhibition at SIRT5 (IC50) required 0.39 ± 0.03 µM. On SIRT6, this compound displayed an IC50 of 129 ± 16.1 µM. In the data set on SH-SY5Y cells, the “Toxicity (MTT) at 50 μM” value is given as “displayed toxicity” and the “Toxicity (MTT) at concentrations up to 20 μM” value was “nontoxic”.
Compound `CCn1c(=O)n(CC(C)C)c(=O)c2[nH]c(SSc3nc4c([nH]3)c(=O)n(CC(C)C)c(=O)n4CC)nc21` [Compound 12, 8,8’-Disulfanediylbis(3-ethyl-1-isobutyl-3,7-dihydro-1H-purine-2,6-dione)] had a melting point of 240 to 242 °C. At SIRT3, this compound displayed an IC50 of 1.77 ± 0.05 µM. At SIRT1 [4], this compound gave an IC50 of 0.43 ± 0.03 µM. Besides, the IC50 at SIRT2 [2] turned out to be 4.86 ± 0.08 µM. For the same compound, at SIRT5, the IC50 stood at 1.51 ± 0.1 µM. This compound also showed an IC50 on SIRT6 of 297 ± 11.3 µM.
With `CCn1c(=O)n(CC2CCOCC2)c(=O)c2[nH]c(SSc3nc4c([nH]3)c(=O)n(CC3CCOCC3)c(=O)n4CC)nc21` [Compound 13, 8,8’-Disulfanediylbis(3-ethyl-1-((tetrahydro-2H-pyran-4-yl)methyl)-3,7-dihydro-1H-purine-2,6-dione)], the melting point fell in the range of 229 to 231 °C. The IC50 against SIRT2 [2] was 2.25 ± 0.12 µM. This compound had an IC50 at SIRT5 of 0.5 ± 0.01 µM. This compound yielded an IC50 against SIRT6 of 156 ± 6.5 µM.
Regarding `CCn1c(=O)n(CC2CCCO2)c(=O)c2[nH]c(SSc3nc4c([nH]3)c(=O)n(CC3CCCO3)c(=O)n4CC)nc21` (stereo not drawn) [Compound 14, 8,8’-Disulfanediylbis(3-ethyl-1-((tetrahydrofuran-2-yl)methyl)-3,7-dihydro-1H-purine-2,6-dione)], the melting point is 166 to 168 °C. Besides, the IC50 against SIRT3 is 0.69 ± 0.12 µM. Moreover, the “Fold enhanced activity compared to compound 12 (SIRT3)” value on SIRT3 (relative to compound 12) worked out at 2.5 fold. 0.15 ± 0.02 µM corresponded to half-maximal inhibition on SIRT1 [4] (IC50). The compound also gave an IC50 against SIRT2 [2] of 1.62 ± 0.05 µM. The compound also came in with an IC50 at SIRT5 of 0.54 ± 0.02 µM. This compound also returned an IC50 at SIRT6 of 127 ± 10.2 µM.
Compound `CCn1c(=O)n(CCc2ccccc2)c(=O)c2[nH]c(SSc3nc4c([nH]3)c(=O)n(CCc3ccccc3)c(=O)n4CC)nc21` [Compound 15, 8,8’-Disulfanediylbis(3-ethyl-1-phenethyl-3,7-dihydro-1H-purine-2,6-dione)] gave a melting point of 225 to 227 °C. The compound further had an IC50 at SIRT2 [2] of 1.35 ± 0.05 µM. Moreover, it took 0.45 ± 0.01 µM to reach half-maximal inhibition on SIRT5 (IC50). Moreover, the IC50 on SIRT6 was 103 ± 6.3 µM. Moreover, in data set [3], the “Stability in the activity assays” value is recorded as “stable”. In the data set with SH-SY5Y cells, the “Toxicity (MTT) at 50 μM” value is given as “displayed toxicity” and the “Toxicity (MTT) at concentrations up to 20 μM” value is recorded as “nontoxic”.
`CCn1c(=O)n(CCc2ccc(F)cc2)c(=O)c2[nH]c(SSc3nc4c([nH]3)c(=O)n(CCc3ccc(F)cc3)c(=O)n4CC)nc21` [Compound 16, 8,8’-Disulfanediylbis(3-ethyl-1-(4-fluorophenethyl)-3,7-dihydro-1H-purine-2,6-dione)] registered a melting point of 216 to 218 °C. Moreover, at SIRT3, the IC50 stood at 0.46 ± 0.04 µM. At SIRT1 [4], this compound registered an IC50 of 0.19 ± 0.01 µM. The compound also came in with an IC50 against SIRT2 [2] of 2.03 ± 0.04 µM. For the same compound, on SIRT5, the IC50 came to 0.84 ± 0.08 µM. Also, on SIRT6, the IC50 was 111 ± 2.6 µM.
For `CCn1c(=O)n(CCc2ccc(NC(=O)OC(C)(C)C)cc2)c(=O)c2[nH]c(SSc3nc4c([nH]3)c(=O)n(CCc3ccc(NC(=O)OC(C)(C)C)cc3)c(=O)n4CC)nc21` [Compound 17, di-tert-Butyl(((Disulfanediylbis(3-ethyl-2,6-dioxo-2,3,6,7-tetrahydro-1H-purine-8,1-diyl))bis(ethane-2,1-diyl))bis(4,1-phenylene))dicarbamate], the melting point was 168 to 171 °C. In addition, at SIRT3, the IC50 amounted to 1.15 ± 0.08 µM. For the same compound, the IC50 on SIRT1 [4] stood at 0.41 ± 0.04 µM. This compound returned an IC50 at SIRT2 [2] of 2.19 ± 0.08 µM. Further, the IC50 on SIRT5 is 1 ± 0.03 µM. Besides, the IC50 at SIRT6 is 128 ± 4.1 µM.
Consider `CCn1c(=O)n(CCc2ccc(OC)cc2)c(=O)c2[nH]c(SSc3nc4c([nH]3)c(=O)n(CCc3ccc(OC)cc3)c(=O)n4CC)nc21` [Compound 18, 8,8’-Disulfanediylbis(3-ethyl-1-(4-methoxyphenethyl)-3,7-dihydro-1H-purine-2,6-dione)], for which the melting point was 216 to 219 °C. This compound registered an IC50 against SIRT2 [2] of 2.16 ± 0.08 µM. For the same compound, 102 ± 9.1 µM corresponded to half-maximal inhibition on SIRT6 (IC50).
`CCn1c(=O)n(CCC(=O)Nc2cccc(C(F)(F)F)c2)c(=O)c2[nH]c(SSc3nc4c([nH]3)c(=O)n(CCC(=O)Nc3cccc(C(F)(F)F)c3)c(=O)n4CC)nc21` [Compound 19, 3,3’-(Disulfanediylbis(3-ethyl-2,6-dioxo-2,3,6,7-tetrahydro-1H-purine-8,1-diyl))bis(N-(3-(trifluoromethyl)phenyl)propanamide)] registered a melting point of 174 to 175 °C. On SIRT3, the midpoint of inhibition, the IC50, lay at 8.52 ± 0.22 µM. Also, the “Fold reduced inhibitory activity compared with 15 (SIRT3)” value at SIRT3 (relative to compound 15) turned out to be 23 fold. The IC50 on SIRT1 [4] turned out to be 1.87 ± 0.04 µM. Further, the IC50 on SIRT2 [2] was determined as 9.44 ± 0.19 µM. The compound also gave an IC50 on SIRT5 of 26.1 ± 3.15 µM. At SIRT6, this compound yielded an IC50 of 452 ± 9.8 µM.
Turning to `CCn1c(=O)n(CCc2ccc(N)cc2)c(=O)c2[nH]c(SSc3nc4c([nH]3)c(=O)n(CCc3ccc(N)cc3)c(=O)n4CC)nc21` [Compound 20, 8,8’-Disulfanediylbis(1-(4-aminophenethyl)-3-ethyl-3,7-dihydro-1H-purine-2,6-dione)], the IC50 against SIRT3 came to 0.97 ± 0.06 µM; against SIRT1 [4] it was 0.49 ± 0.01 µM; at SIRT2 [2], 4.61 ± 0.13 µM; against SIRT5, 0.92 ± 0.04 µM; against SIRT6, 210 ± 5.9 µM.
With `CS(=O)(=O)NCCC1CCN(c2ncnc3cc(C(N)=O)sc23)CC1` [ELT-31, reference compound], the IC50 at SIRT2 [2] is 0.12 ± 0.01 µM; at SIRT5, over 500 µM; at SIRT6, 462 ± 14.9 µM.
Consider `Cc1cc(C)nc(SCC(=O)Nc2ncc(Cc3cccc4ccccc34)s2)n1` [SirReal2], for which, in the data set on SIRT2 [5], the IC50 is […].
On to `CC(C(=O)Nc1cccc(/N=C/c2c(O)ccc3ccccc23)c1)c1ccccc1` (stereo not drawn) [salermide], for which the IC50 with SIRT1 [6] is 76 µM; in the data set on SIRT2 [5], 45 µM.
For the compound `Cc1ccc(C(=O)Nc2ccc(S(=O)(=O)O)c3cc(S(=O)(=O)O)cc(S(=O)(=O)O)c23)cc1NC(=O)c1cccc(NC(=O)Nc2cccc(C(=O)Nc3cc(C(=O)Nc4ccc(S(=O)(=O)O)c5cc(S(=O)(=O)O)cc(S(=O)(=O)O)c45)ccc3C)c2)c1` [suramin], the IC50 with SIRT2 [5] was 1.2 µM.
